Measurements as given in US6548052B2, “Antibacterial deodorizing compositions” (Innoscent Ltd., priority 1997, dated 2003).

Assays:
[1] = system: S. epidermidis; test: Inhibition test: samples applied onto bacterial lawns, growth inhibition zone; format: cell-based; details: for inhibition of S. epidermidis (in words): solvents in water, Table III
Description: (§1) The Extraction Process: […] The mixture was vortexed for 10 min and the samples were centrifuged for 30 min at 10000 rpm. The supernatant was collected and referred to as the extract. The extract was then filtered through a 0.22 or a 0.45 μm filter. Inhibition Test: The antimicrobial activity of the various extracts was examined by applying samples (5 μl) onto lawns of axillary bacteria. Following incubation of 24 hours at 37° C., inhibition was determined by measuring the diameter of the growth inhibition zone (in cm). In the tables, “+” indicates full growth inhibition(transparent zone), “−” indicates lack of inhibition, and “+/−” indicates partial inhibition (translucent zone). For the purposes of comparative testing, 5 μl aliquots of either red or black henna extracts (20% w/v in 20% v/v ethanol) are applied to the bacterial lawns.

[2] = system: C. xerosis; test: as above; format: cell-based, Corynebacterium xerosis
Description: as §1

[3] = system: Streptococcus aureus; details: Handbook of Medicinal Herbs; cited from earlier work
[4] = system: oral species; details: Didry et al. 1994; cited from earlier work

O=C1C=CC(=O)c2ccccc21 [1,4-naphthoquinone]
Inhibition of S. epidermidis ([1]; 0.01% in ethanol 20%): − | Inhibition of S. epidermidis ([1]; 0.02% in ethanol 20%): − | Inhibition of S. epidermidis ([1]; 0.2% in ethanol 20%): + | Inhibition of S. epidermidis, zone diameter ([1]; 0.2% in ethanol 20%): 1.4 cm | growth inhibition of S. epidermidis (in words) ([1]; comment on Table I): inhibits the growth | Inhibition of C. xerosis ([2]; 0.01% in ethanol 20%): − | Inhibition of C. xerosis ([2]; 0.02% in ethanol 20%): − | Inhibition of C. xerosis ([2]; 0.2% in ethanol 20%): + | Inhibition of C. xerosis, zone diameter ([2]; 0.2% in ethanol 20%): 0.8 cm | growth inhibition of C. xerosis (in words) ([2]; comment on Table I): inhibits the growth

CCO [ETHANOL, ethanol]
Inhibition of S. epidermidis ([1]; solvent content 5%): − | Inhibition of S. epidermidis ([1]; solvent content 10%): − | Inhibition of S. epidermidis ([1]; solvent content 15%): − | Inhibition of S. epidermidis ([1]; solvent content 20%): − | Inhibition of S. epidermidis ([1]; solvent content 25%): − | Inhibition of S. epidermidis ([1]; solvent content 30%): − | Inhibition of S. epidermidis ([1]; solvent content 35%): − | Inhibition of S. epidermidis ([1]; solvent content 40%): − | Inhibition of S. epidermidis ([1]; solvent content 45%): − | Inhibition of S. epidermidis ([1]; solvent content 50%): − | Inhibition of S. epidermidis ([1]; solvent content 55%): − | Inhibition of S. epidermidis ([1]; solvent content 60%): − | Inhibition of S. epidermidis ([1]; solvent content 65%): − | Inhibition of S. epidermidis ([1]; solvent content 70%): − | Inhibition of S. epidermidis ([1]; solvent content 75%): − | Inhibition of S. epidermidis ([1]; solvent content 80%): − | Inhibition of S. epidermidis ([1]; solvent content 90%): − | Inhibition of S. epidermidis ([1]; solvent content 100%): − | inhibition of S. epidermidis (in words) [1]: no inhibition | inhibition of C. xerosis (in words) ([2]; above 40% (v/v) in water): some inhibition | Inhibition of C. xerosis ([2]; solvent content 5%): − | Inhibition of C. xerosis ([2]; solvent content 10%): − | Inhibition of C. xerosis ([2]; solvent content 15%): − | Inhibition of C. xerosis ([2]; solvent content 20%): − | Inhibition of C. xerosis ([2]; solvent content 25%): − | Inhibition of C. xerosis ([2]; solvent content 30%): − | Inhibition of C. xerosis ([2]; solvent content 35%): − | Inhibition of C. xerosis ([2]; solvent content 40%): +/− | Inhibition of C. xerosis, zone diameter ([2]; solvent content 40%): 0.2 cm | Inhibition of C. xerosis ([2]; solvent content 45%): +/− | Inhibition of C. xerosis, zone diameter ([2]; solvent content 45%): 0.2 cm | Inhibition of C. xerosis ([2]; solvent content 50%): +/− | Inhibition of C. xerosis, zone diameter ([2]; solvent content 50%): 0.6 cm | Inhibition of C. xerosis ([2]; solvent content 55%): +/− | Inhibition of C. xerosis, zone diameter ([2]; solvent content 55%): 0.6 cm | Inhibition of C. xerosis ([2]; solvent content 60%): +/− | Inhibition of C. xerosis, zone diameter ([2]; solvent content 60%): 0.8 cm | Inhibition of C. xerosis ([2]; solvent content 65%): +/− | Inhibition of C. xerosis, zone diameter ([2]; solvent content 65%): 0.8 cm | Inhibition of C. xerosis ([2]; solvent content 70%): +/− | Inhibition of C. xerosis, zone diameter ([2]; solvent content 70%): 0.8 cm | Inhibition of C. xerosis ([2]; solvent content 75%): +/− | Inhibition of C. xerosis, zone diameter ([2]; solvent content 75%): 0.8 cm | Inhibition of C. xerosis ([2]; solvent content 80%): +/− | Inhibition of C. xerosis, zone diameter ([2]; solvent content 80%): 0.8 cm | Inhibition of C. xerosis ([2]; solvent content 90%): + | Inhibition of C. xerosis, zone diameter ([2]; solvent content 90%): 1.1 cm | Inhibition of C. xerosis ([2]; solvent content 100%): + | Inhibition of C. xerosis, zone diameter ([2]; solvent content 100%): 1.3 cm

CO [METHANOL, methanol]
Inhibition of S. epidermidis ([1]; solvent content 5%): − | Inhibition of S. epidermidis ([1]; solvent content 10%): − | Inhibition of S. epidermidis ([1]; solvent content 15%): − | Inhibition of S. epidermidis ([1]; solvent content 20%): − | Inhibition of S. epidermidis ([1]; solvent content 25%): − | Inhibition of S. epidermidis ([1]; solvent content 30%): − | Inhibition of S. epidermidis ([1]; solvent content 35%): − | Inhibition of S. epidermidis ([1]; solvent content 40%): − | Inhibition of S. epidermidis ([1]; solvent content 45%): − | Inhibition of S. epidermidis ([1]; solvent content 50%): − | Inhibition of S. epidermidis ([1]; solvent content 55%): − | Inhibition of S. epidermidis ([1]; solvent content 60%): − | Inhibition of S. epidermidis ([1]; solvent content 65%): − | Inhibition of S. epidermidis ([1]; solvent content 70%): − | Inhibition of S. epidermidis ([1]; solvent content 75%): − | Inhibition of S. epidermidis ([1]; solvent content 80%): − | Inhibition of S. epidermidis ([1]; solvent content 90%): − | Inhibition of S. epidermidis ([1]; solvent content 100%): − | inhibition of S. epidermidis (in words) [1]: no inhibition | inhibition of C. xerosis (in words) ([2]; above 45%): some inhibition | Inhibition of C. xerosis ([2]; solvent content 5%): − | Inhibition of C. xerosis ([2]; solvent content 10%): − | Inhibition of C. xerosis ([2]; solvent content 15%): − | Inhibition of C. xerosis ([2]; solvent content 20%): − | Inhibition of C. xerosis ([2]; solvent content 25%): − | Inhibition of C. xerosis ([2]; solvent content 30%): − | Inhibition of C. xerosis ([2]; solvent content 35%): − | Inhibition of C. xerosis ([2]; solvent content 40%): − | Inhibition of C. xerosis ([2]; solvent content 45%): +/− | Inhibition of C. xerosis ([2]; solvent content 50%): +/− | Inhibition of C. xerosis ([2]; solvent content 55%): +/− | Inhibition of C. xerosis ([2]; solvent content 60%): +/− | Inhibition of C. xerosis, zone diameter ([2]; solvent content 60%): 0.8 cm | Inhibition of C. xerosis ([2]; solvent content 65%): +/− | Inhibition of C. xerosis, zone diameter ([2]; solvent content 65%): 0.8 cm | Inhibition of C. xerosis ([2]; solvent content 70%): +/− | Inhibition of C. xerosis, zone diameter ([2]; solvent content 70%): 0.8 cm | Inhibition of C. xerosis ([2]; solvent content 75%): +/− | Inhibition of C. xerosis, zone diameter ([2]; solvent content 75%): 0.8 cm | Inhibition of C. xerosis ([2]; solvent content 80%): +/− | Inhibition of C. xerosis, zone diameter ([2]; solvent content 80%): 0.8 cm | Inhibition of C. xerosis ([2]; solvent content 90%): +/− | Inhibition of C. xerosis, zone diameter ([2]; solvent content 90%): 0.8 cm | Inhibition of C. xerosis ([2]; solvent content 100%): +/− | Inhibition of C. xerosis, zone diameter ([2]; solvent content 100%): 0.8 cm

O=C(O)c1cc(O)c(O)c(O)c1 [gallic acid]
inhibition of “Streptococcus aureus” [3]: slightly | Inhibition of S. epidermidis ([1]; 0.2% in ethanol 20%): − | Inhibition of S. epidermidis ([1]; 0.4% in ethanol 20%): +/− | Inhibition of C. xerosis ([2]; 0.2% in ethanol 20%): − | Inhibition of C. xerosis ([2]; 0.4% in ethanol 20%): −

O=C1C=C(O)C(=O)c2ccccc21 [lawsone]
antibacterial activity against oral species [4]: antibacterial activity | Inhibition of S. epidermidis ([1]; 0.01% in ethanol 20%): − | Inhibition of S. epidermidis ([1]; 0.02% in ethanol 20%): − | Inhibition of S. epidermidis ([1]; 0.2% in ethanol 20%): − | Inhibition of S. epidermidis ([1]; 1.0% in ethanol 50%): − | Inhibition of S. epidermidis ([1]; 1.0% in ethanol 100%): − | Inhibition of S. epidermidis ([1]; 1.0% in hot water): − | Inhibition of C. xerosis ([2]; 0.01% in ethanol 20%): − | Inhibition of C. xerosis ([2]; 0.02% in ethanol 20%): − | Inhibition of C. xerosis ([2]; 0.2% in ethanol 20%): − | Inhibition of C. xerosis ([2]; 1.0% in ethanol 50%): − | Inhibition of C. xerosis ([2]; 1.0% in ethanol 100%): − | Inhibition of C. xerosis ([2]; 1.0% in hot water): −
